Source: patent publication US20100004277A1, “COMPOUNDS AND METHODS FOR MODULATING PROTEIN TRAFFICKING” (FoldRx Pharmaceuticals, Inc., priority 2006, published 2010)
Residues, ends and D or L forms follow the SMILES beside them. *: point of attachment. Cbz = O=C(OCc1ccccc1)*

Experiments:
ypt1^ts cells = assay: ypt1^ts mutant growth rescue assay (OD600); format: cell-based, yeast; details: for rescue of ypt1^ts loss of function / restoring growth of ypt1^ts: 35° C. and 37° C.
Source text: The yeast mutant cell line ypt1^ts suppresses, in a temperature dependent fashion, the dominant-lethal phenotype of a mutant YPT1 allele (Schmitt et al. (1988) Cell 53:635-47). The yeast mutant cell line ypt1^ts contains an allele of YPT1 that has two point mutations: one that changes an asparagine at position 121 to a isoleucine (N121I) and another that changes an alanine at position 161 to a valine (A161V). The N121I mutation causes dominant lethality by itself, but lethality is suppressed by the second mutation, resulting in a recessive loss of function phenotype at the restrictive temperatures. ypt1^ts cells grow normally at temperatures up to 25° C., but are growth arrested at 37° C. (Id.).
Compounds that rescue cells from alpha-synuclein toxicity were screened to assess their ability to restore growth of ypt1^ts cells. The effect of the compounds was measured on ypt1^ts cells cultured at room temperature (permissive temperature), 37° C. (non-permissive temperature), and 35° C. (semi-permissive temperature).
To determine if the test compounds could rescue the ypt1^ts mutant phenotype, ypt1^ts cells were grown overnight in synthetic complete (SC) media supplementd with 2% glucose at room temperature. Log phase cells were diluted into SC 2% glucose media to an OD600 of 0.003. 100 μL of this culture was then aliquoted into each well of 96-well flat bottom microtiter plates. 1 μL of the test compounds dissolved in DMSO (at a concentration range from 5 mM-0.005 mM) or of DMSO alone was added to each well (50 uM-0.05 uM final concentration in 1% DMSO). Plates were mixed by vortexing and incubated at 35° C. and 37° C. Compound rescue of the ypt1^ts temperature sensitive defect was assessed by measuring the OD600 (optical density at 600 nm; cell growth) of the cultures. Plates incubated at 35° C. were measured at 24 and 40 hours incubation time while plates grown at 37° C. were measured after 40 hours of incubation.
Assays monitoring the rescue of ypt1^ts mutants were performed using a vehicle, a positive control (calcium), active compounds obtained from the alpha-synuclein screen (Cpd. I.1 and Cpd. II.1), alpha-synuclein-active analogs of Cpd. […] I.1 (Cpd. I.4 and Cpd. I.5).

alpha-synuclein toxicity = assay: alpha-synuclein screen (rescue of cells from alpha-synuclein toxicity); format: cell-based
[1] = tested on: sar1^ts mutant yeast strain; assay: sar1^ts mutant growth rescue assay (OD600); format: cell-based; details: 35° C., 72 hours, 0.05 to 50 μM
Experimental: The sar1st mutant yeast strain (ATCC, Manassas, Va.) carries a temperature sensitive mutant allele of the SAR1 gene, which permits the strain to grow at 25° C., but undergo growth arrest at 35° C. or higher. Inactivation of the mutant Sar1^ts protein at 35° C. prevents the formation of transport vesicles at the ER, causing a block in ER to golgi trafficking (Saito et al. (1998) J. Biochem. (Tokyo) 124(4):816-823).
To identify compounds that rescue the sar1^ts mutant phenotype, the mutant strain was first grown at 25° C. in rich media overnight. The strain was then diluted to an OD600 of 0.004 in SC media with 2% glucose, and mixed with various dilutions of test compounds (0.05 to 50 μM) in SC media with 2% glucose. The cells were then incubated at 25° C. or 35° C. for 72 hours. Rescue of the sar1^ts mutant phenotype was scored as an increase in the OD600 (concentration of the yeast cells) cultured in the presence of a test compound as compared to cells cultured cultured in the absence of the test compound.

[2] = tested on: sec23-2^ts mutant yeast strain; assay: sec23^ts mutant growth rescue assay (OD600); format: cell-based; details: 30° C., 24 hours, 0.05 to 50 μM
Experimental: The sec23-2^ts mutant yeast strain carries a temperature sensitive mutant allele of the SEC23 gene, which permits the strain to grow normally at 25° C., but undergo growth arrest at 30° C. or higher. Inactivation of the Sec23 temperature-sensitive mutant protein at the restrictive temperature prevents the formation of transport vesicles at the ER resulting in a block in ER to golgi trafficking (see, e.g., Hicke et al. (1989) EMBO J. 8(6):1677-1684 and Castillo-Flores et al. (2005) J. Biol. Chem. 280(40):34033-34041).
To identify compounds that rescue the sec23^ts mutant phenotype, the mutant strain was first grown at 25° C. in rich media overnight. The strain was then diluted to an OD600 of 0.004 in SC media with 2% glucose, and mixed with various dilutions of test compounds compounds compounds (0.05 to 50 μM) in SC media with 2% glucose. The cells were then incubated at 25° C. or 30° C. for 24 hours. Rescue of the sec23^ts mutant phenotype was scored as an increase in the OD600 of cells cultured in the presence of the a compound as compared to cells cultured in the absence of the test compound.

ΔF508 CFTR mutant = details: cell-based studies, cited from earlier work
ΔF508 CFTR = ΔF508 CFTR stabilization in CFBE cells, western blot; format: cell-based; details: 16 hours, 37° C.; for amount of cellular ΔF508 CFTR protein (band B) / amount of the glycosylated form of ΔF508 CFTR (band C): vs DMSO; for amount of glycosylated and unglycosylated ΔF508 CFTR proteins compared to absence of compound: all concentrations tested (1-10 μM)
Experimental: Selected compounds identified in the ypt1^ts screen were further tested for their ability to stabilize ΔF508 CTFR. CFBE cells, a cell line generated by transformation of cystic fibrosis tracheo-bronchial cells (ΔF508 CTFR homozygous) with SV40 (Bruscia et al. (2002) Gene Ther. 9(11):683-685), were cultured with 10 μM Cpd. I.3, 10 μM Cpd. II.2, or 10 μM VRT-325 for 16 hours at 37° C. (VRT-325 is described in, e.g., Van Goor et al. (2006) Am. J. Physiol. Lung Cell Mol. Physiol. 290:L1117-L1130). A population of cells was also cultured with the dimethyl sulfoxide (DMSO) solvent as a control.
Following incubation, cells were lysed, solubilized in Laemmli buffer, and subjected to SDS-PAGE. CFTR protein was visualized by western blotting using an antibody specific for CFTR. Culturing CFBE cells with Cpd. I.3 or Cpd. II.2 increased the amount of cellular ΔF508 CFTR protein (see band “B,” FIG. 3A). Cpd. I.3 and Cpd. […] The effects of Cpd. I.3 or Cpd.
Next, to test the effect of different concentrations of Cpd. I.3 and Cpd. II.2 on ΔF508 CFTR, a dose response experiment was performed. CFBE cells were grown at 37° C. for 16 hours in the presence of 1, 2.5, 5, or 10 μM Cpd. I.3 or Cpd. II.2. Following incubation, lysates were prepared from the various treated cell populations, the lysates solubilized in Laemmli buffer, and subjected to SDS-PAGE. The relative amounts of glysosylated (band “C”) and unglycosylated (band “B”) ΔF508 CFTR protein were visualized by western blotting as above (FIGS. 4A and 4C). The band intensities were quantitated by scanning and densitometry. […] I.3 (FIG. 4B) and Cpd. II.2 (FIG. 4D), respectively.

Row | Molecule | rescue of ypt1^ts loss of function / restoring growth of ypt1^ts (ypt1^ts cells) | rescue of the sar1^ts mutant phenotype [1] | rescue of the sec23^ts mutant phenotype [2] | also measured
1 | N=C(NC(=O)[C@H]1C[C@@H]1c1ccccc1)Nc1nc2ccccc2o1 [Cpd. I.2] | rescued |  |  | activity in the alpha-synuclein screen (alpha-synuclein toxicity): active
2 | aureobasidin [reference compound] | effective | not detected | not detected | 
3 | COc1cccc2c1C(=O)c1c(O)c3c(c(O)c1C2=O)C[C@@](O)(C(=O)CO)C[C@@H]3O[C@H]1C[C@H](N)[C@H](O)[C@H](C)O1 [doxorubicin, reference compound] | effective | not detected | not detected | 
4 | O=C1CC(c2cccc(Cl)c2)c2cc3c4c(cccc4c2N1)CC3 (stereo not drawn) [II.57] |  | not detected | not detected | 
5 | O=C1CC(c2cccc(Cl)c2)c2cc3c(cc2N1)CCC3 (stereo not drawn) [Cpd. II.3] |  |  |  | rescue of the ypt1^ts mutant phenotype (ypt1^ts cells; 5.0 μM, 37° C., 40 hours): rescued
6 | N/C(=N\C(=O)C1CCCCC1)Nc1nc2ccccc2o1 [Cpd. I.4] | did not |  |  | activity in the alpha-synuclein screen (alpha-synuclein toxicity): inactive
7 | C[C@@H]1C[C@@H]([C@H](O)CC2CC(=O)NC(=O)C2)C(=O)[C@@H](C)C1 [cycloheximide, reference compound] | effective | rescue | not detected | 
8 | CC(C)C[C@H](NC(=O)[C@H](Cc1ccccc1)NC(=O)c1cnccn1)B(O)O [bortezomib] |  |  |  | cellular chloride efflux (ΔF508 CFTR mutant; ΔF508 CFTR mutant): restoring; stabilization of the ΔF508 CFTR mutant, preventing premature degradation (ΔF508 CFTR mutant): stabilize
9 | N/C(=N\C(=O)CCc1ccco1)Nc1nc2ccccc2o1 [Cpd. I.6] |  | rescue | not detected | 
10 | C#Cc1cccc(C2CC(=O)Nc3c2ccc2c3CCC2)c1 (stereo not drawn) [II.59] |  | not detected | not detected | 
11 | O=C1CC(c2ccccc2)c2ccc3ccccc3c2N1 (stereo not drawn) [Cpd. II.1] | rescue | not detected | not detected | activity in the alpha-synuclein screen (alpha-synuclein toxicity): active
12 | CC(C)C[C@@H](C=O)NC(=O)[C@H](CC(C)C)NC(=O)[C@H](CC(C)C)NC(=O)OCc1ccccc1 [MG132, reference compound] (Cbz-Leu-Leu-Leu-aldehyde) |  |  |  | rescue of ypt1^ts loss of function (ypt1^ts cells; 37° C., 40 hours, range 0.05-50 μM, intermediate concentrations): rescued
13 | O=C1CC(c2cccc(Cl)c2)c2ccc3c(c2N1)CCC3 (stereo not drawn) [Cpd. II.2] |  | not detected | not detected | effects on stabilizing ΔF508 CFTR compared with VRT-325 (ΔF508 CFTR; 10 μM): comparable or better; amount of cellular ΔF508 CFTR protein (band B) (ΔF508 CFTR; 10 μM): increased; amount of the glycosylated form of ΔF508 CFTR (band C) (ΔF508 CFTR; 10 μM): increased; concentration at which efficacy reached a maximum (dose response curves from western blot) (ΔF508 CFTR): 2.5 to 5 µM; amount of glycosylated and unglycosylated ΔF508 CFTR proteins compared to absence of compound (ΔF508 CFTR): increase
14 | CO[C@@H]1[C@@H](OC(N)=O)[C@@H](O)[C@H](Oc2ccc3c(O)c(NC(=O)c4ccc(O)c(CC=C(C)C)c4)c(=O)oc3c2C)OC1(C)C [novobiocin, reference compound] | effective |  |  | 
15 | N/C(=N\C(=O)C1CC1)Nc1nc2ccccc2s1 [Cpd. I.3] | rescued | rescue | rescue | rescue of the ypt1^ts mutant phenotype (ypt1^ts cells; 2.0 μM, 37° C., 40 hours): rescued; effects on stabilizing ΔF508 CFTR compared with VRT-325 (ΔF508 CFTR; 10 μM): comparable or better; amount of cellular ΔF508 CFTR protein (band B) (ΔF508 CFTR; 10 μM): increased; amount of the glycosylated form of ΔF508 CFTR (band C) (ΔF508 CFTR; 10 μM): increased; concentration at which efficacy reached a maximum (dose response curves from western blot) (ΔF508 CFTR): 1 to 2.5 µM; amount of glycosylated and unglycosylated ΔF508 CFTR proteins compared to absence of compound (ΔF508 CFTR): increase; activity in the alpha-synuclein screen (alpha-synuclein toxicity): active
16 | N=C(NC(=O)[C@@H]1C[C@@H]1c1ccccc1)Nc1nc2ccccc2o1 [Cpd. I.5] | did not | rescue | not detected | activity in the alpha-synuclein screen (alpha-synuclein toxicity): inactive
17 | COc1ccc(S(=O)(=O)N2CCN(C(C)c3nc(OC4CCCCC4)c4ccccc4n3)CC2)cc1 (stereo not drawn) [VRT-325, reference compound] |  |  |  | stabilization of ΔF508 CFTR protein in CFBE cells (ΔF508 CFTR; 10 μM): stabilization
18 | CCC(=O)/N=C(\N)Nc1nc2ccccc2s1 [Cpd. I.1] | rescue | rescue | rescue | activity in the alpha-synuclein screen (alpha-synuclein toxicity): active
19 | COc1ccc(OC)c(C2CC(=O)Nc3c2ccc2ccccc32)c1 (stereo not drawn) [II.12] |  | not detected | not detected | 
20 | [Ca+2] [calcium, reference compound] | rescued |  |  | 
21 | tunicamycin [reference compound] | effective |  |  | 
22 | O=C1CC(c2cccc(Cl)c2)c2ccc(-c3ccccc3)cc2N1 (stereo not drawn) [II.27] |  | not detected | not detected | 
